Here are results for one compound from patent US20240059755A1, “NANOLIPOPROTEIN-POLYPEPTIDE CONJUGATES AND COMPOSITIONS, SYSTEMS, AND METHODS USING SAME” (Genentech, Inc., priority 2020, published 2024).

In this experiment the test system is trypsin. The experiment is described as follows: Trypsin enzymatic assay (L-Arg-AMC substrate). The format is biochemical.

Experimental: Briefly, the peptide NLP conjugates were incubated at the indicated concentration with trypsin (2 nM) for 30 min at room temperature. The substrate L-Arginine-7-amido-4-methylcoumarin (L-Arg-AMC) (75 μM) was added to the mixture and the proteolytic activity was measured immediately. Samples were run in triplicate and repeated twice. The data were analyzed using KaleidaGraph software.

`CCCCCCCCCCCCCCCC(=O)NCCCC[C@H](N)C(=O)NCC(=O)N[C@@H](CO)C(=O)NCC(=O)N[C@@H](CO)C(=O)NCC(=O)N[C@H]1CSSC[C@@H]2NC(=O)CNC(=O)[C@H](C)NC(=O)[C@H](CC(C)C)NC(=O)[C@@H]3CSSC[C@@H](C(=O)NCC(=O)O)NC(=O)[C@H](Cc4ccccc4)NC(=O)CNC(=O)[C@H](CC(N)=O)NC(=O)[C@@H]4CCCN4C(=O)CNC(=O)[C@H](CSSC[C@H](NC(=O)[C@H](CCCNC(=N)N)NC(=O)[C@H](CCSC)NC(=O)[C@H](CC(C)C)NC(=O)[C@H]([C@@H](C)CC)NC(=O)[C@H](CCCNC(=N)N)NC(=O)[C@@H]4CCCN4C1=O)C(=O)N[C@@H](CCCCN)C(=O)N[C@@H](CCC(N)=O)C(=O)N[C@@H](CC(=O)O)C(=O)N[C@@H](CO)C(=O)N[C@@H](CC(=O)O)C(=O)N3)NC(=O)[C@H](C(C)C)NC2=O` [CKP-C16]: the trypsin inhibitory activity entry is given as “inhibitory potency”.
